The values that follow are results of earlier work, collected in patent US20020037290A1, “Compositions comprising heat shock proteins or alpha(2) macroglobulin, antigenic molecules and saponins, and methods of use thereof” (priority 2000, published 2002).

The subject of series [1] is bovine serum albumin and cytochrome b5. To be noted: Kensil et al., 1991, cited from earlier work; for level of antibody response induced: mice, antigens bovine serum albumin and cytochrome b5; for IgG2a response to cytochrome b5: saponin doses of 20 μg.
The subject of series [2] is murine antiidiotype antibody MELIMMUNE-1. As to conditions: melanoma patients; Livingston et al., 1995; cited from earlier work.
The conditions of series [3]: mouse, in vivo; cited from earlier work.
Series [4] relates to UV6138 carcinoma. To be noted: cited from earlier work.
Series [5] deals with UV6139SJ carcinoma. To be noted: prior experiments, cited from earlier work; for tumor growth, monitored as the average of two perpendicular diameter measurements: U.S. Pat. No. 5,837,251, established UV6139SJ carcinoma.
In series [6] the test system is UV6139SJ carcinoma. As to conditions: cited from earlier work.
[7] abbreviates: previously shown, U.S. Pat. No. 5,837,251.
Setting [8] is: prior result of U.S. Pat. No. 5,837,251, resistant mice out of mice challenged.

In the case of QS-17, in series [1], the “level of antibody response induced” value is listed as “comparable to other commonly used adjuvants” and the “IgG2a response to cytochrome b5” value is “stimulate IgG2a response”.

Turning to QS-18, in series [1], the “level of antibody response induced” value was “comparable to other commonly used adjuvants” and the “IgG2a response to cytochrome b5” value was “stimulate IgG2a response”.

Take QS-21: the “serological response to MELIMMUNE-1” value in series [2] is listed as “significantly increased”. In series [3], the toxicity in mice result is on record as “least toxic”. In series [1], the “level of antibody response induced” value is listed as “comparable to other commonly used adjuvants” and the “IgG2a response to cytochrome b5” value is reported as “stimulate IgG2a response”.

B1: gp96 derived from the UV6138: heat shock protein gp96(-peptide complex) preparation isolated from the UV-induced UV6138 mouse carcinoma (protein, UniProt P08113 22-802, looked up)
Endoplasmin: DDEVDVDGTVEEDLGKSREGSRTDDEVVQREEEAIQLDGLNASQIRELREKSEKFAFQAEVNRMMKLIINSLYKNKEIFLRELISNASDALDKIRLISLTDENALAGNEELTVKIKCDKEKNLLHVTDTGVGMTREELVKNLGTIAKSGTSEFLNKMTEAQEDGQSTSELIGQFGVGFYSAFLVADKVIVTSKHNNDTQHIWESDSNEFSVIADPRGNTLGRGTTITLVLKEEASDYLELDTIKNLVRKYSQFINFPIYVWSSKTETVEEPLEEDEAAKEEKEESDDEAAVEEEEEEKKPKTKKVEKTVWDWELMNDIKPIWQRPSKEVEEDEYKAFYKSFSKESDDPMAYIHFTAEGEVTFKSILFVPTSAPRGLFDEYGSKKSDYIKLYVRRVFITDDFHDMMPKYLNFVKGVVDSDDLPLNVSRETLQQHKLLKVIRKKLVRKTLDMIKKIADEKYNDTFWKEFGTNIKLGVIEDHSNRTRLAKLLRFQSSHHSTDITSLDQYVERMKEKQDKIYFMAGSSRKEAESSPFVERLLKKGYEVIYLTEPVDEYCIQALPEFDGKRFQNVAKEGVKFDESEKTKESREATEKEFEPLLNWMKDKALKDKIEKAVVSQRLTESPCALVASQYGWSGNMERIMKAQAYQTGKDISTNYYASQKKTFEINPRHPLIRDMLRRIKEDEDDKTVMDLAVVLFETATLRSGYLLPDTKAYGDRIERMLRLSLNIDPEAQVEEEPEEEPEDTSEDAEDSEQDEGEEMDAGTEEEEEETEKESTEKDEL
modifications: bound tumor peptides
notes: heat shock protein gp96(-peptide complex) preparation isolated from the UV-induced UV6138 mouse carcinoma
With B1, in series [4] (setting [7]), the “immunity to the UV6138 challenge” value is recorded as “rendered the mice immune”. Also, the “resistance conferred against the UV6138 cells” value in series [4] (setting [8]) is recorded as 6 out of 7.

B2: liver-derived gp96: gp96-peptide complex derived from normal liver (protein, UniProt P08113 22-802, looked up)
Endoplasmin: B1 Endoplasmin
modifications: bound peptides
Consider B2, for which the “tumor growth, monitored as the average of two perpendicular diameter measurements” value in series [5] is “not”.

B3: gp96 derived from the UV6139: gp96-peptide complex derived from UV6139SJ carcinoma cells (protein, UniProt P08113 22-802, looked up)
Endoplasmin: B1 Endoplasmin
modifications: bound tumor peptides
notes: gp96-peptide complex derived from UV6139SJ carcinoma cells
Consider B3, for which the “immunity to the UV6139SJ challenge” value in series [6] (setting [7]) is listed as “conferred resistance”. Further, the “resistance conferred against the UV6139SJ cells” value in series [6] (setting [8]) is given as 2 out of 4. In series [5], the “tumor growth, monitored as the average of two perpendicular diameter measurements” value is “significantly retarded”. The “kinetics of tumor growth in treated and control mice” value in series [5] (effect appears to diminish after treatment is terminated) is recorded as “immediate inhibitory effect on tumor growth”.
